# System: Detroit D562 cells
# Test: Airway epithelial cells pretreated with component, then stimulated with viral infection proxy poly I:C; cytokine ELISA of supernatant
# Assay type: cell-based
# Conditions: Example 7; Galunisertib alone 100 nM
# Method: Detroit […] cells (ATCC-CCL138) were cultured in a T75 flask (Corning cat. No. 430641) in minimum essential medium (MEM, Invitrogen Catalog No. 21090-022) with 1× non-essential amino acids (Invitrogen cat. No. 11140-035), 10 mM sodium pyruvate (Invitrogen cat. No. 11360-039), 2 mM glutamax (Invitrogen cat. No. 35050-038), 1000 U/ml antibiotics penicillin, 1000 μg/ml […] and 10% serum (Hyclone, GE healthcare Life Sciences, lot. No. RB35936), henceforth called 10% complete medium with serum (CMS). Cells were trypsinized when confluency of 80% or greater was achieved, using 3 ml of Trypsin-EDTA (Invitrogen, cat. No. 25200-056) and resuspended into 12 ml of 10% CMS. Cells were counted and seeded at 6*10^4 cells/ml in three 24-well tissue culture treated plate (Corning cat. No. 3527) with 1 ml per well. These were cultured for one week till confluent. […] All the components were calibrated on protein concentration and added on cells at the calculated total protein concertation of 1 mg/ml on dry matter. […] ELISA kits from R&D Systems (Biotechne) were used to quantify cytokines IL-8/CXCL8 (DY208), IL-6 (DY206), TNF-α (DY210) and IFN-λ1/3 (DY1598B) according to the manufacturer's guidelines. Absorbance was measured at 450 nm and corrected for at 570 nm using the Biorad iMark plate reader & Imark software version 6.2. Cytokines were quantified before and after the addition of poly I:C.
smiles,measurement,value
Cc1cccc(-c2nn3c(c2-c2ccnc4ccc(C(N)=O)cc24)CCC3)n1 [Galunisertib],effect of Galunisertib alone on the cells,had no effect on the cells

# From patent US20260158111A1, “USE OF TGF IN THE PREVENTION VIRUS INFECTION OF THE RESPIRATORY TRACT” (FrieslandCampina Nederland B.V., priority 2021, published 2026)
